Patent US6093714A, “Tricyclic benzazepine compounds” (priority 1995, dated 2000)
Where a name gives a salt, the structure may show the parent alone. Read-outs that look alike come from different tables or passages of the source.

Tests used:
intraperitoneal cells = experiment: Histamine release reaction inhibition test (rat intraperitoneal cells, DNP-As antigen); type: cell-based, Wistar male rat; details: 10^-5 to 10^-10 M test compound, DNP-As stimulated intraperitoneal cells, 10^5 cells/ml, read-out: IC50 (dose of the test compound required for inhibiting the histamine release reaction by 50%)
Experimental: Histamine release reaction inhibition test
(1) Preparation of antiserum
Rat anti-dinitrophenylated ascaris protein (hereinafter referred to as "DNP-As") serum was prepared according to the method established by Tada et al. (Tada, T. and Okumura, K., J. Immun. 106(4), 1971). Specifically, 1010 organisms of Bordetella pertussis and 1 mg of DNP-As were intramuscularly administered to the foot pad of the limbs of Brown norway male rats weighing 200 g, and, five days after the administration, 0.5 mg of DNP-As was intramuscularly administered to the back. Three days after that, blood was collected to prepare an antiserum. The titer of the antiserum was determined by using a 48-hr passive cutaneous anaphylaxis reaction using a rat and found to be 1:1000 to 1:2000.
(2) Induction of histamine release reaction and release reaction inhibitory activity
The above serum was diluted four times with physiological brine, and 1 ml of the diluted serum was intraperitoneally administered to a Wistar male rat. Two days after the administration, the abdominal cavity was washed with phosphate buffer, and intraperitoneal cells were collected. The cells were adjusted to 10^5 cells/ml and stimulated with 1 pg/ml DNP-As, and the amount of the histamine released on the supernatant was measured by the method established by Shore et al (Shore, P. A., Burkhalter, A. H. and Chon Jr. V. H. J. Pharm. Exp. Ther., 127 , 182-186 (1959)).
The amount of the released histamine treated with 10^-5 to 10^-10 M test compound was compared with that of non-treated group. The dose of the test compound required for inhibiting the histamine release reaction by 50% (IC50) was calculated based on the percentage inhibition. IC50 of sodium cromoglicate was used as a control.

[1] = system: allergic foot-pad edema reaction; experiment: Immediate and late phase allergic response inhibition test (allergic foot-pad edema reaction); type: in vivo, Wister male rats; details: Rattus norvegicus, po, 20 mg/kg orally, 10 min before induction
Experimental: Immediate and late phase allergic response inhibition test
Wister male rats weighing of 200 g were provided. 1010 organisms of Bordetella pertussis and 1 mg of dinitrophenylated ovalbumin (hereinafter abbreviated to "DNP-OA") were intramuscularly administered into the foot pad of the limbs of the rats except for the right hind leg. Further, ten days after the administration, 5 pg/site DNP-OA was subcutaneously administered to the right hind leg to induce allergic foot-pad edema reaction. The inhibitory activity of the test compounds was determined in such a manner that the volume of edema 30 min after the induction of the allergic reaction was regarded as an immediate phase allergic response and the volume of edema 8 hr after the induction of the allergic reaction was regarded as a late phase allergic response. Each test compound was dissolved or suspended in a 0.25% Tween 80 solution, and the solution or suspension was orally administered at a dose of 20 mg/kg 10 min before the induction of the allergic reaction.
Only the 0.25% Tween 80 solution was administered to the control group of rats not treated with any test compound, and 100 mg/kg sodium cromoglicate was subcutaneously or orally administered to the positive control group of rats.
The percentage inhibition of the allergic foot-pad edema reaction was determined by the following equation.
Percentage inhibition of allergic foot-pad edema reaction=(A-B)/A×100
wherein A: average edema volume for the non-treated control group of rats; and
B: average edema volume for the group of rats with the test compound administered.

[2] = 0.5 h, edema 30 min after induction, read-out: Inhibition (%) Immediate phase response
[3] = edema 8 hr after induction, read-out: Inhibition (%) Late phase response

Compound | IC50 (intraperitoneal cells) | inhibition in vivo at 20 mg/kg [1, 2] | inhibition in vivo at 20 mg/kg [1, 3]
O=c1[nH]c2cc(OCCCN3CCC(Cc4ccccc4)CC3)ccc2c(=O)c2[nH]nnc12 [Example 14, 7-(3-(4-Benzylpiperidino)propoxy)-4(5H),10-dioxo-1H-1,2,3-triazolo[4,5-c][1]benzazepine trifluoroacetate] | 11 nM | 32% | 15%
O=c1[nH]c2cc3c(cc2c(=O)c2[nH]nnc12)OCO3 [Example 26, 7,8-Methylenedioxy-4(5H),10-dioxo-1H-1,2,3-triazolo[4,5-c][1]benzazepine] | 69 nM | 43% | 29%
Cc1cccc(/C=C/c2ccc3c(=O)c4[nH]nnc4c(=O)[nH]c3c2)n1 [Example 32, (E)-7-(2-(6-Methyl-2-pyridyl)-(E)-ethenyl)-4(5H),10-dioxo-1H-1,2,3-triazolo[4,5-c][1]benzazepine trifluoroacetate] | 1.2 nM | 55% | 43%
Cc1cc2[nH]c(=O)c3nn[nH]c3c(=O)c2cc1O [Example 28, 8-Hydroxy-7-methyl-4(5H),10-dioxo-1H-1,2,3-triazolo[4,5-c][1]benzazepine] | 12 nM | 51% | 48%
COC(=O)c1cc2c(s1)CCN(C(=O)CCc1ccc3c(=O)c4[nH]nnc4c(=O)[nH]c3c1)C2 [Example 7, 7-(2-(2-Methoxycarbonyl-4,5,6,7-tetrahydrothieno[3,2-c]pyridin-5-yl)carbonylethyl)-4(5H),10-dioxo-1H-1,2,3-triazolo[4,5-c][1]benzazepine] | 12 nM | 20% | -3%
COc1ccc(C(=O)COc2cc3c(=O)c4[nH]nnc4c(=O)[nH]c3cc2C)cc1 [Example 27, 8-(4-Methoxyphenacyloxy)-7-methyl-4(5H),10-dioxo-1H-1,2,3-triazolo[4,5-c][1]benzazepine] | 10 nM | – | –
CC(C)Oc1cc2[nH]c(=O)c3nn[nH]c3c(=O)c2cc1OC(C)C [Example 25, 7,8-diisopropoxy-4(5H),10-dioxo-1H-1,2,3-triazolo[4,5-c][1]benzazepine] | 4.9 nM | 59% | 38%
COc1cc2c(=O)c3[nH]nnc3c(=O)[nH]c2c(OC)c1OC [Example 30, 6,7,8-Trimethoxy-4(5H),10-dioxo-1H-1,2,3-triazolo[4,5-c][1]benzazepine] | 8.7 nM | 58% | 51%
O=c1[nH]c2cc(C(F)(F)F)ccc2c(=O)c2[nH]nnc12 [Example 34, 7-Trifluoromethyl-4(5H),10-dioxo-1H-1,2,3-triazolo[4,5-c][1]benzazepine] | 5.3 nM | 66% | 59%
CN1CCN(CCCOc2ccc3c(=O)c4[nH]nnc4c(=O)[nH]c3c2)CC1 [Example 13, 7-(3-(4-Methyl-1-piperazino)propoxy)-4(5H),10-dioxo-1H-1,2,3-triazolo[4,5-c][1]benzazepine ditrifluoroacetate] | 11 nM | 28% | 28%
Cc1cc(C)c2[nH]c(=O)c3nn[nH]c3c(=O)c2c1 [Example 29, 6,8-Dimethyl-4(5H),10-dioxo-1H-1,2,3-triazolo[4,5-c][1]benzazepine] | 31 nM | – | –
O=c1[nH]c2cc(/C=C/c3ccc4ccccc4n3)ccc2c(=O)c2[nH]nnc12 [Example 33, 4(5H),10-Dioxo-7-(2-(2-quinolyl)-(E)-ethenyl)-1H-1,2,3-triazolo[4,5-c][1]benzazepine trifluoroacetate] | 0.4 nM | – | –
O=C(/C=C/c1ccc2c(=O)c3[nH]nnc3c(=O)[nH]c2c1)Nc1ccccc1C(=O)O [Example 1, 7-(2-(N-(2-Carboxyphenyl)carbamoyl)-(E)-ethenyl)-4(5H),10-dioxo-1H-1,2,3-triazolo[4,5-c][1]benzazepine] | 6 nM | – | –

Further lines, with some results ahead:

IC50 (intraperitoneal cells) | Compound | inhibition in vivo at 20 mg/kg [1, 2] | inhibition in vivo at 20 mg/kg [1, 3]
9.5 nM | CN1CCN(C(=O)CCc2ccc3c(=O)c4[nH]nnc4c(=O)[nH]c3c2)CC1 [Example 8, 7-(2-(4-Methylpiperazin-1-yl)carbonylethyl)-4(5H),10-dioxo-1H-1,2,3-triazolo[4,5-c][1]benzazepine] | 42% | 20%
9.9 nM | CCN(Cc1ccccn1)C(=O)COc1ccc2c(=O)c3[nH]nnc3c(=O)[nH]c2c1 [Example 15, 7-(N-Ethyl-N-(2-pyridylmethyl)carbamoylmethyloxy)-4(5H),10-dioxo-1H-1,2,3-triazolo[4,5-c][1]benzazepine trifluoroacetate] | 34% | 25%
4.4 nM | O=C(CCc1ccc2c(=O)c3[nH]nnc3c(=O)[nH]c2c1)NCc1ccccn1 [Example 2, 4(5H),10-dioxo-7-(2-(N-(2-pyridyl)methyl)carbamoyl)ethyl-1H-1,2,3-triazolo[4,5-c][1]benzazepine] | 57% | 43%
4.6 nM | CN(Cc1ccccn1)C(=O)CCc1ccc2c(=O)c3[nH]nnc3c(=O)[nH]c2c1 [Example 3, 4(5H),10-dioxo-7-(2-(N-methyl-N-(2-pyridyl)methyl)carbamoyl)ethyl-1H-1,2,3-triazolo[4,5-c][1]benzazepine] | 44% | 14%
3.9 nM | O=C(CCc1ccc2c(=O)c3[nH]nnc3c(=O)[nH]c2c1)Nc1ccncc1 [Example 9, 7-(2-(N-(4-Pyridylamino))carbamoyl)ethyl-4(5H),10-dioxo-1H-1,2,3-triazolo[4,5-c][1]benzazepine] | 30% | 33%
2.9 nM | O=C(CCc1ccc2c(=O)c3[nH]nnc3c(=O)[nH]c2c1)N(Cc1ccccn1)Cc1ccccn1 [Example 5, 4(5H ),10-Dioxo-7-(2-(N,N-bis(2-pyridylmethyl))carbamoyl)ethyl-1H-1,2,3-triazolo[4,5-c][1]benzazepine] | 40% | 43%
13 nM | CCN(Cc1ccccn1)C(=O)CCc1ccc2c(=O)c3[nH]nnc3c(=O)[nH]c2c1 [Example 4, 7-(2-(N-Ethyl-N-(2-pyridyl)methyl)carbamoyl)ethyl-4(5H),10-dioxo-1H-1,2,3-triazolo[4,5-c][1]benzazepine] | 48% | 21%
4.5 nM | O=C(CCc1ccc2c(=O)c3[nH]nnc3c(=O)[nH]c2c1)N1CCc2ccccc2C1 [Example 6, 7-(2-(1,2,3,4-Tetrahydro-2-isoquinolyl)carbonylethyl)-4(5H),10-dioxo-1H-1,2,3-triazolo[4,5-c][1]benzazepine] | 19% | 29%
2.8 nM | O=C(COc1ccc2c(=O)c3[nH]nnc3c(=O)[nH]c2c1)NCc1ccccn1 [Example 16, 4(5H ),10-Dioxo-7-(N-(2-pyridylmethyl)carbamoylmethyloxy)-1H-1,2,3-triazolo[4,5-c][1]benzazepine trifluoroacetate] | 48% | 35%
2 nM | O=c1[nH]c2cc(C=Cc3cccnc3)ccc2c(=O)c2[nH]nnc12 [Example 31, 4(5H),10-Dioxo-7-(2-(3-pyridyl)ethenyl)-1H-1,2,3-triazolo[4,5-c][1]benzazepine trifluoroacetate (E:Z=1:2)] | – | –
1.8 nM | O=c1[nH]c2cc(/C=C/c3ccccn3)ccc2c(=O)c2[nH]nnc12 [Example 11, 4(5H),10-Dioxo-7-(2-(2-pyridyl)-(E)-ethenyl)-1H-1,2,3-triazolo[4,5-c][1]benzazepine trifluoroacetate] | – | –
